Assay [1] deals with T1, ExtHD (Gallus gallus, UniProt Q05917).
T1 construct: gene EN2; homeodomain plus 17-residue basic N-terminal extension (183-259); E. coli SE1, His6-Cherry fusion removed by PreScission, GPAS left at N-terminus (GPCAS with biotin-PEG2-maleimide for biotinylated form)
T1 sequence (Q05917 183-259): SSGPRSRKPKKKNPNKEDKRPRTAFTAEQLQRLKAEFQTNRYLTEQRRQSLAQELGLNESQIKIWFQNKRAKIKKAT
Put plainly: ITC, titration with POPG LUVs. To be noted: read-out: Kd^apparent. It is filed as binding. The text has this: ITC, titration with POPG LUVs on ExtHD
Background: In ITC the heat of successive injections is recorded.

Assay [2] addresses T2, HD (Gallus gallus, UniProt Q05917).
T2 construct: gene EN2; homeodomain alone (200-259); E. coli SE1, His6-Cherry fusion removed by PreScission, GPAS left at N-terminus
T2 sequence (Q05917 200-259): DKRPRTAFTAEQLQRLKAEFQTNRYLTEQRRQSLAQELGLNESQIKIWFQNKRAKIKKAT
Put plainly: ITC, titration with POPG LUVs. It is filed as binding. To be noted: read-out: Kd^apparent. The text has this:
ITC, titration with POPG LUVs on HD

In the case of `CCCCCCCC/C=C\CCCCCCCC(=O)O[C@H](COC(=O)CCCCCCCCCCCCCCC)COP(=O)(O)OCC(O)CO` (mixture of isomers) [POPG, 1-palmitoyl-2-oleoyl-sn-glycero-3-phospho-(1’-rac-glycerol)], the Kd in assay [1] was determined as 6.8 ± 2.3 µM; in assay [2], 7.5 ± 2.5 µM.

The values are drawn from paper PMC10083169, “A cationic motif upstream Engrailed2 homeodomain controls cell internalization through selective interaction with heparan sulfates” (Nature Communications, 2023).
